From patent US20260335282A1, “NOVEL 3-ARYLIDENE-2-INDOLINONE DERIVATIVES FOR THERAPEUTIC USE” (ISTANBUL UNIVERSITESI REKTORLUGU, priority 2022, published 2026)
Entries after “also recorded” stand apart in the source; their conditions may differ.

Experiments:
human cancer cells = assay: MTT cell viability, human cancer cells overall; format: cell-based; conditions: cell line as discussed at the place
Text: The cytotoxicity, general tyrosine kinase inhibitory effects and cell death (apoptosis/necrosis) assays of 1-benzyl-3-(1H-indol-3-ylmethylidene)-1,3-dihydro-2H-indol-2-one derivatives (Formula 5) of the present invention are studied by the following methods. […] HUVEC (human umbilical vein endothelial cell), MCF-10F (human breast epithelial cell) and Beas2b (human lung bronchial epithelial cell) cell lines have been used as healthy control cells in MTT experiments.
Beas2b (human lung bronchiole epithelial cell) and HEK293 (renal tubule epithelium) cells used as normal cell lines were cultured in RPMI medium, and HUVEC (human umbilical cord endothelial cells) and MCF-10F (human breast epithelial cell) cells are cultured in DMEM medium containing 100 µg/ml penicillin/streptomycin. The cells, which covered 70% of the culture flask, are washed with phosphate buffer and then removed from the surface of the flask by application of trypsin-ethylenediamine tetraacetic acid (Trypsin-EDTA; 0.25%) solution, passaged, counted and seeded on appropriate plates before each experiment. Cells are treated with a total of 45 2-indolinone compounds (5) at concentrations of 0.1, 1, 5 and 10 μM. Stock compounds are prepared in 1 ml dimethylsulfoxide (DMSO) and 4 different dilutions were prepared with medium and performed to the cells. Control group cells are treated with DMSO at a similar concentration to the experimental groups.
MTT (3-(4,5-dimethylthiazol-2-yl)-2,5-diphenyl-2H-tetrazolium bromide) colorimetric assay provides quantitation of viable cells with ongoing mitochondrial activity in culture medium. According to the standard procedure in cell culture conditions, cells are maintained in RPMI-1640 and DMEM culture media containing 10% FBS and 1% penicillin/streptomycin. The trypan blue test is used for cell counts.
The effects of 45 2-indolinone compounds (5) on cell viability in all cancer cell lines are investigated by MTT assay. Cells are seeded in a 96-well flat bottom plate with 5000 cells in each well and 2-indolinone compounds (5) at concentrations of 0.1, 1, 5 and 10 μM are performed to the cells the next day. After 48 and/or 72 hours following treatment with 2-indolinone compounds, 50 μl of the supernatant is slowly discarded (as it was acid medium) and MTT at a concentration of 5 mg/ml is added to each well in a volume of 10 μl. After incubation for 4 hours, the formazan crystals formed in the wells are dissolved by adding 100 μl DMSO and the optical density is read at 570 nm test wavelength and 630 nm reference wavelength. Cell viability is expressed as % cell viability by comparing the absorbance of control and test wells. IC50 value is calculated from the dose-response curves prepared for each compound. In addition, the possible DMSO effect is eliminated by preparing negative control wells compatible with the amount of DMSO contained in the compounds. To understand the reaction of the compounds with MTT, cell-free (MTT+compounds) negative controls are prepared at the concentrations used (Mosmann, 1983). […] The absorbance values obtained are compared to the control and statistically evaluated by unpaired t-test using “Graphpad Prism 5.04” software. “P<0.05” is accepted as significant. When evaluating cytotoxic effects, the present inventors aim for the inventive compounds to be effective in cancer cells and ineffective in healthy cells. […]

A498 cells = assay: Apoptosis/necrosis detection, Annexin V/PI flow cytometry, A498; format: cell-based, human
Description: After incubation with 2-indolinone compounds (IC50 μM concentration; 48 and/or 72 hours), cells are washed twice with PBS and the cell pellet is suspended in Annexin V binding buffer. After this incubation, cells are incubated with FITC-conjugated Annexin V and propidium iodine staining solution for 15 minutes in the dark and at room temperature. Then, cells are analyzed by flow cytometry (Beckman coulter, Navios) (Wlodkowic, D., Skommer, J, Darzynkiewicz, Z. 2009. Flow cytometry-based apoptosis detection, Methods Mol Biol., 559, 1-14).

| Compound | potency/selectivity compared with sunitinib malate (human cancer cells) | necrosis compared to control (A498 cells; A498) | Apoptosis rate compared to control (A498 cells; A498, IC50 concentration) |
| --- | --- | --- | --- |
| O=C1/C(=C\c2c[nH]c3ccccc23)c2cc(OC(F)(F)F)ccc2N1Cc1ccccc1 [Y4] | more potent than Sunitinib malate |  |  |
| Cc1ccc2c(c1)/C(=C/c1c[nH]c3ccccc13)C(=O)N2Cc1ccccc1 [Y3] |  | no increase or decrease; also recorded: did not cause necrosis | increased significantly |
